# Laboratory results: US20090022803A1, “Oral Formulations For Delivery of Catecholic Butanes Including Ndga Compounds” (priority 2005, published 2009)
# What was measured:
# [1] = Absorption of M4N in beagle dogs upon oral administration of solid formulations in capsules, serum LC/MS/MS; format: in vivo; conditions: oral single 100 mg/kg
# Protocol: Five groups of dogs (n=2 per group, one male and one female) (age=approximately 6-9 months old) were exposed to a single 100 mg/kg dose of M4N in excipient to determine the optimal oral solid excipient. The composition of M4N in excipient was encapsulated in size 12 hard gelatin capsules prior to oral administration. The animals were fasted overnight prior to dosing. The excipients/formulations tested are set forth in Table 19 and were: (a) no excipient, where M4N was encapsulated; (b) HP-β-CD; (c) TPGS; (d) soybean oil+beeswax; and (e) olive oil+beeswax. Blood was collected from each animal via the jugular vein at the following time points: predose, 0.5 hr, 1 hr, 1.5 hr, 2 hr, 4 hr, 6 hr and 8 hr post dosing. Concentrations of M4N in serum were determined by Liquid Chromatography combined with tandem Mass Spectroscopy (LC/MS/MS).
# [2] = M4N stability in HP-β-CD/PEG 300 buffer solutions at 60° C., RP-HPLC and pH; format: physicochemical; conditions: for M4N stability: M4N: 25% PEG300
# Protocol: The stability of 10 mg/mL M4N (prepared in a ratio of 75:25 40% HP-β-CD: 40 mg/mL M4N PEG 300) in 15 mM buffer solutions was evaluated following incubation at 60° C.
# 2.0 g HP-β-CD was weighed into 5 mL volumetric flasks on an OHAUS Analytical Plus Balance. 1 mL of a 100 mM buffer solution was added to each flask. Each sample was q.s. to 5 mL with WFI.
# 750 μL 40% HP-β-CD buffered solution was placed in 1.5 mL polypropylene microtubes. […] After gentle inversion of the sample tubes, the pH of each solution was measured using a Orion, Model 420A pH meter. An initial aliquot was removed for RP-HPLC analysis. Test samples were then placed in a Precision 60° C. incubator. The M4N stability was evaluated by RP-HPLC. At each time point, the samples were centrifuged for 2 minutes at 13,000 rpm to pellet any solid M4N.
structure (smiles),measurement,setting,value
"COc1ccc(C[C@@H](C)[C@@H](C)Cc2ccc(OC)c(OC)c2)cc1OC [Formulation M4N, meso-1,4-bis(3,4-dimethoxyphenyl)-2,3-dimethylbutane]","Absorption, ranking between formulations",[1]; Lyophilized HP-β-CD (81%)+M4N (185 mg/g),higher than that containing TPGS
same,"Absorption, ranking between formulations",[1]; TPGS (20%)+M4N (133 mg/g),higher than that containing soybean oil+beeswax
same,"Absorption, ranking between formulations",[1]; olive oil (95%)+beeswax (5%)+M4N (200 mg/g),highest
same,"Absorption, ranking between formulations",[1]; soybean oil (95%)+beeswax (5%)+M4N (200 mg/g),higher than M4N without an excipient
same,change in M4N concentration,"[2]; 10 mg/mL M4N in HP-β-CD/PEG 300 buffer solutions, 14 day incubation at 60° C.",slight decrease
same,M4N stability: M4N,"[2]; 15 mM Acetate, pH 5 30% HP-β-CD, 60° C., 0 days",10.6 mg/mL
same,M4N stability: M4N,"[2]; 15 mM Acetate, pH 5 30% HP-β-CD, 60° C., 2 days",10.2 mg/mL
same,M4N stability: M4N,"[2]; 15 mM Acetate, pH 5 30% HP-β-CD, 60° C., 6 days",9.6 mg/mL
same,M4N stability: M4N,"[2]; 15 mM Acetate, pH 5 30% HP-β-CD, 60° C., 10 days",9.7 mg/mL
same,M4N stability: M4N,"[2]; 15 mM Acetate, pH 5 30% HP-β-CD, 60° C., 14 days",9.6 mg/mL
same,M4N stability: M4N,"[2]; 15 mM Acetate, pH 6 30% HP-β-CD, 60° C., 0 days",10.5 mg/mL
same,M4N stability: M4N,"[2]; 15 mM Acetate, pH 6 30% HP-β-CD, 60° C., 2 days",10.1 mg/mL
same,M4N stability: M4N,"[2]; 15 mM Acetate, pH 6 30% HP-β-CD, 60° C., 6 days",9.7 mg/mL
same,M4N stability: M4N,"[2]; 15 mM Acetate, pH 6 30% HP-β-CD, 60° C., 10 days",9.7 mg/mL
same,M4N stability: M4N,"[2]; 15 mM Acetate, pH 6 30% HP-β-CD, 60° C., 14 days",9.6 mg/mL
same,M4N stability: M4N,"[2]; 15 mM Borate, pH 10 30% HP-β-CD, 60° C., 0 days",10.5 mg/mL
same,M4N stability: M4N,"[2]; 15 mM Borate, pH 10 30% HP-β-CD, 60° C., 2 days",10.1 mg/mL
same,M4N stability: M4N,"[2]; 15 mM Borate, pH 10 30% HP-β-CD, 60° C., 6 days",9.7 mg/mL
same,M4N stability: M4N,"[2]; 15 mM Borate, pH 10 30% HP-β-CD, 60° C., 10 days",9.6 mg/mL
same,M4N stability: M4N,"[2]; 15 mM Borate, pH 10 30% HP-β-CD, 60° C., 14 days",9.6 mg/mL
same,M4N stability: M4N,"[2]; 15 mM Borate, pH 11 30% HP-β-CD, 60° C., 0 days",10.5 mg/mL
same,M4N stability: M4N,"[2]; 15 mM Borate, pH 11 30% HP-β-CD, 60° C., 2 days",10.3 mg/mL
same,M4N stability: M4N,"[2]; 15 mM Borate, pH 11 30% HP-β-CD, 60° C., 6 days",9.8 mg/mL
same,M4N stability: M4N,"[2]; 15 mM Borate, pH 11 30% HP-β-CD, 60° C., 10 days",9.5 mg/mL
same,M4N stability: M4N,"[2]; 15 mM Borate, pH 11 30% HP-β-CD, 60° C., 14 days",9.4 mg/mL
same,M4N stability: M4N,"[2]; 15 mM Phosphate, pH 3 30% HP-β-CD, 60° C., 0 days",10.3 mg/mL
same,M4N stability: M4N,"[2]; 15 mM Phosphate, pH 3 30% HP-β-CD, 60° C., 2 days",10.1 mg/mL
same,M4N stability: M4N,"[2]; 15 mM Phosphate, pH 3 30% HP-β-CD, 60° C., 6 days",9.6 mg/mL
same,M4N stability: M4N,"[2]; 15 mM Phosphate, pH 3 30% HP-β-CD, 60° C., 10 days",9.7 mg/mL
same,M4N stability: M4N,"[2]; 15 mM Phosphate, pH 3 30% HP-β-CD, 60° C., 14 days",9.6 mg/mL
same,M4N stability: M4N,"[2]; 15 mM Phosphate, pH 4 30% HP-β-CD, 60° C., 0 days",10.5 mg/mL
same,M4N stability: M4N,"[2]; 15 mM Phosphate, pH 4 30% HP-β-CD, 60° C., 2 days",10.1 mg/mL
same,M4N stability: M4N,"[2]; 15 mM Phosphate, pH 4 30% HP-β-CD, 60° C., 6 days",9.6 mg/mL
same,M4N stability: M4N,"[2]; 15 mM Phosphate, pH 4 30% HP-β-CD, 60° C., 10 days",9.7 mg/mL
same,M4N stability: M4N,"[2]; 15 mM Phosphate, pH 4 30% HP-β-CD, 60° C., 14 days",9.6 mg/mL
same,M4N stability: M4N,"[2]; 15 mM Phosphate, pH 7 30% HP-β-CD, 60° C., 0 days",10.5 mg/mL
same,M4N stability: M4N,"[2]; 15 mM Phosphate, pH 7 30% HP-β-CD, 60° C., 2 days",10.3 mg/mL
same,M4N stability: M4N,"[2]; 15 mM Phosphate, pH 7 30% HP-β-CD, 60° C., 6 days",9.7 mg/mL
same,M4N stability: M4N,"[2]; 15 mM Phosphate, pH 7 30% HP-β-CD, 60° C., 10 days",9.7 mg/mL
same,M4N stability: M4N,"[2]; 15 mM Phosphate, pH 7 30% HP-β-CD, 60° C., 14 days",9.7 mg/mL
same,M4N stability: M4N,"[2]; 15 mM Phosphate, pH 8 30% HP-β-CD, 60° C., 0 days",10.6 mg/mL
same,M4N stability: M4N,"[2]; 15 mM Phosphate, pH 8 30% HP-β-CD, 60° C., 2 days",10.4 mg/mL
same,M4N stability: M4N,"[2]; 15 mM Phosphate, pH 8 30% HP-β-CD, 60° C., 6 days",9.7 mg/mL
same,M4N stability: M4N,"[2]; 15 mM Phosphate, pH 8 30% HP-β-CD, 60° C., 10 days",9.8 mg/mL
same,M4N stability: M4N,"[2]; 15 mM Phosphate, pH 8 30% HP-β-CD, 60° C., 14 days",9.6 mg/mL
same,M4N stability: M4N,"[2]; 15 mM Phosphate, pH 9 30% HP-β-CD, 60° C., 0 days",10.4 mg/mL
same,M4N stability: M4N,"[2]; 15 mM Phosphate, pH 9 30% HP-β-CD, 60° C., 2 days",10.2 mg/mL
same,M4N stability: M4N,"[2]; 15 mM Phosphate, pH 9 30% HP-β-CD, 60° C., 6 days",9.7 mg/mL
same,M4N stability: M4N,"[2]; 15 mM Phosphate, pH 9 30% HP-β-CD, 60° C., 10 days",9.8 mg/mL
same,M4N stability: M4N,"[2]; 15 mM Phosphate, pH 9 30% HP-β-CD, 60° C., 14 days",9.7 mg/mL
same,"M4N impurities, share of the total peak area","[2]; HP-β-CD/PEG 300 buffer solutions, 60° C.",less than 0.1%
same,M4N stability: M4N,"[2]; WFI, 30% HP-β-CD, 60° C., 0 days",10.4 mg/mL
same,M4N stability: M4N,"[2]; WFI, 30% HP-β-CD, 60° C., 6 days",9.9 mg/mL
same,M4N stability: M4N,"[2]; WFI, 30% HP-β-CD, 60° C., 10 days",9.7 mg/mL
same,M4N stability: M4N,"[2]; WFI, 30% HP-β-CD, 60° C., 14 days",9.6 mg/mL
same,change in apparent sample pH,[2]; incubation at 60° C. up to 14 days,Little if any changes
